Measured values taken from US7473711B2, “Androgen modulators” (Pfizer Inc., priority 2004, dated 2009).

Molecular target: T1, androgen receptor in MDA-MB453-MMTV clone 54-19 cells (Homo sapiens, UniProt P10275)
T1 sequence (P10275 1-920 Q868H): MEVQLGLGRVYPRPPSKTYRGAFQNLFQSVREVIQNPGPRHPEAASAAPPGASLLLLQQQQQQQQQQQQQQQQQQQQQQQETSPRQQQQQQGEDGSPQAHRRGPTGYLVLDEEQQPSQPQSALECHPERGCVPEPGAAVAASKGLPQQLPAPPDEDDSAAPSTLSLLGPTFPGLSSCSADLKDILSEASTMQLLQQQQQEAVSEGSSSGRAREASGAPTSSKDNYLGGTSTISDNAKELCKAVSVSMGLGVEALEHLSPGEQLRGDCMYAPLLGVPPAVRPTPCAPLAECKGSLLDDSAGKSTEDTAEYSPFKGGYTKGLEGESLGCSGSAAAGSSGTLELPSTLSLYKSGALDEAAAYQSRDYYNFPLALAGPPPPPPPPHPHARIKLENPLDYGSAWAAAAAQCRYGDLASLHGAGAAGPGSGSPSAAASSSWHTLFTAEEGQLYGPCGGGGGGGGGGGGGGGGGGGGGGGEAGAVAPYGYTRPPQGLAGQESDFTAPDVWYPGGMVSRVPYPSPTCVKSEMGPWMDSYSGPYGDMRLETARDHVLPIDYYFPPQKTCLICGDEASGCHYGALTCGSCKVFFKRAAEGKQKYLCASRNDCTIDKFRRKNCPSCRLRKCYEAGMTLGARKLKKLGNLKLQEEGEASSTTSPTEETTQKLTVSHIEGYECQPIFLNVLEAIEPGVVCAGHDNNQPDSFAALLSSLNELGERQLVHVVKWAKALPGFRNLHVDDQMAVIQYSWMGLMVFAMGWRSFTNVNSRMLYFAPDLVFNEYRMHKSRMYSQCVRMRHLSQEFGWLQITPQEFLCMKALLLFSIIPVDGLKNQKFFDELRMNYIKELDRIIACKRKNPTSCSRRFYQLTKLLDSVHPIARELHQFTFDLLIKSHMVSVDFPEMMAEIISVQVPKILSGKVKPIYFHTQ
Assay: AR antagonist cell assay (MMTV-luciferase reporter, 100 pM DHT)
Format: cell-based
Settings: read-out: AR Cell IC50; MDA-MB453-MMTV clone 54-19, inhibition of 100 pM DHT induced luciferase, 17 hr; mean of multiple tests
Protocol: The compounds ability to antagonize the effects of androgen on the androgen receptor were determined in a whole cell assay as described immediately below.
Experimental Procedure for AR Antagonist Cell Assay
Cell line: MDA-MB453-MMTV clone 54-19. This cell line is a stable transfected cell line with MDA-MB453 cell background (a human breast tumor cell line expressing androgen receptor). A MMTV minimal promoter containing ARE was first cloned in front of a firefly luciferase reporter gene. Then the cascade was cloned into transfection vector pUV120puro. Electroporation method was used for transfecting MDA-MB-453 cell. Puromycin resistant stable cell line was selected. Cell Culture Media and Reagents:
Culture medium: DMEM (high glucose, Gibco cat #: 11960-044), 10% FBS, and 1% L-glutamine
Plating medium: DMEM (phenol red free), 10% charcoal treated HyClone serum, 1% L-glutamine
Assay medium: DMEM (phenol red free), 1% charcoal treated HyClone serum, 1% L-glutamine, and 1% penicillin/streptomycin
3X luciferase buffer: 2% beta-mercaptoethanol, 0.6% ATP, 0.0135% luciferine in cell lysis buffer
• 1. Cells are maintained in culture medium, splitting cells when they reach 80-90% confluence • 2. To test compounds, 10,000 cells/well are plated to opaque 96 cell culture plate in 100 ul/well plating medium, culture for overnight at 37° C. in cell culture incubator • 3. Carefully remove plating medium, then add 80 ul/well of pre-warmed assay medium, add 10 ul/well testing compound (final concentration at) 1000 nM, 200 nM, 40 nM, 8 nM, 1.6 nM, and 0.32 nM), incubate at 37° C. for 30 minutes • 4. Add 10 ul/well freshly prepared DHT (final concentration at 100 pM) to each well, incubate at 37° C. for 17 hr (overnight) • 5. Add 50 ul/well 3X luciferase buffer, incubate at room temperature for 5 minutes, then count on Luminometer
The fold induction over background by 100 pM DHT in the absence of testing compounds is standardized as 100% and experimental result is expressed as percentage of inhibition by testing compounds.
The results are reported as the mean of multiple tests as described below (the numbers of tests are indicated in the footnote). N.D. denotes that the compound was not tested.

SMILES | IC50
N#Cc1ccc(OCCCCCOc2ccc(C#N)c(C(F)(F)F)c2)cc1C(F)(F)F [Example 24] | 64 nM
COCC(COc1ccccc1)Oc1ccc(C#N)c(C(F)(F)F)c1 (stereo not drawn) [Example 27, 4-(1-Methoxymethyl-2-phenoxy-ethoxy)-2-trifluoromethyl-benzonitrile] | 19 nM
N#Cc1ccc(OC(CO)COc2ccccc2)cc1C(F)(F)F (stereo not drawn) [Example 28, 4-(1-Hydroxymethyl-2-phenoxy-ethoxy)-2-trifluoromethyl-benzonitrile] | 69 nM
